Test results as given in the NIST ThermoML archive (doi:10.1021/je101086r).

Assay: xn = mol fraction of the nth substance listed
Settings: Pycnometric method

CC1COC(=O)O1 (configuration not stated) [4-methyl-1,3-dioxolan-2-one] + O=C=O
Settings | mass density [kg/m3]
313 K, 2000 kPa, Gas, x2 = 0.9953 | 47.6
313 K, 2000 kPa, Liquid, x2 = 0.2593 | 1170
313 K, 3000 kPa, Gas, x2 = 0.9895 | 73
313 K, 3000 kPa, Liquid, x2 = 0.3384 | 1170
313 K, 4000 kPa, Gas, x2 = 0.9864 | 97.2
313 K, 4000 kPa, Liquid, x2 = 0.4022 | 1160
313 K, 5000 kPa, Gas, x2 = 0.9894 | 136.8
313 K, 5000 kPa, Liquid, x2 = 0.4548 | 1164.8
313 K, 6000 kPa, Gas, x2 = 0.9963 | 170.5
313 K, 6000 kPa, Liquid, x2 = 0.4919 | 1156
313 K, 7000 kPa, Gas, x2 = 0.99 | 224.7
313 K, 7000 kPa, Liquid, x2 = 0.542 | 1141.4
313 K, 8000 kPa, Gas, x2 = 0.99 | 244
313 K, 8000 kPa, Liquid, x2 = 0.5706 | 1129.7
313 K, 9000 kPa, Gas, x2 = 0.9907 | 276.7
313 K, 9000 kPa, Liquid, x2 = 0.6169 | 1109.2
313 K, 10000 kPa, Gas, x2 = 0.9841 | 339.9
313 K, 10000 kPa, Liquid, x2 = 0.6579 | 1089.3
313 K, 11000 kPa, Gas, x2 = 0.9866 | 366.2
313 K, 11000 kPa, Liquid, x2 = 0.6915 | 1073
313 K, 12000 kPa, Gas, x2 = 0.9694 | 390.8
313 K, 12000 kPa, Liquid, x2 = 0.7279 | 1046.6
333 K, 3000 kPa, Gas, x2 = 0.9942 | 52
333 K, 3000 kPa, Liquid, x2 = 0.2425 | 1090.7
333 K, 4000 kPa, Gas, x2 = 0.9968 | 77.8
333 K, 4000 kPa, Liquid, x2 = 0.2787 | 1096.7
333 K, 5000 kPa, Gas, x2 = 0.9922 | 100.2
333 K, 5000 kPa, Liquid, x2 = 0.3272 | 1106.7
333 K, 6000 kPa, Gas, x2 = 0.9862 | 116.8
333 K, 6000 kPa, Liquid, x2 = 0.3723 | 1105.7
333 K, 7000 kPa, Gas, x2 = 0.9885 | 147.9
333 K, 7000 kPa, Liquid, x2 = 0.4079 | 1109.2
333 K, 8000 kPa, Gas, x2 = 0.9898 | 174.5
333 K, 8000 kPa, Liquid, x2 = 0.4512 | 1110.2
333 K, 9000 kPa, Gas, x2 = 0.984 | 199.6
333 K, 9000 kPa, Liquid, x2 = 0.4846 | 1102.2
333 K, 10000 kPa, Gas, x2 = 0.9855 | 230.2
333 K, 10000 kPa, Liquid, x2 = 0.5244 | 1091.2
333 K, 11000 kPa, Gas, x2 = 0.9812 | 271.3
333 K, 11000 kPa, Liquid, x2 = 0.5725 | 1077.1
333 K, 12000 kPa, Gas, x2 = 0.9888 | 326.5
333 K, 12000 kPa, Liquid, x2 = 0.6065 | 1061.1
333 K, 13000 kPa, Gas, x2 = 0.9883 | 411.2
333 K, 13000 kPa, Liquid, x2 = 0.6246 | 1052.5
353 K, 1000 kPa, Gas, x2 = 0.952 | 18.6
353 K, 1000 kPa, Liquid, x2 = 0.081 | 1011
353 K, 2000 kPa, Gas, x2 = 0.9663 | 32.2
353 K, 2000 kPa, Liquid, x2 = 0.115 | 1024.5
353 K, 3000 kPa, Gas, x2 = 0.9679 | 50.9
353 K, 3000 kPa, Liquid, x2 = 0.1518 | 1030
353 K, 4000 kPa, Gas, x2 = 0.9679 | 68.5
353 K, 4000 kPa, Liquid, x2 = 0.196 | 1040.8
353 K, 5000 kPa, Gas, x2 = 0.9591 | 84.4
353 K, 5000 kPa, Liquid, x2 = 0.2317 | 1044.3
353 K, 6000 kPa, Gas, x2 = 0.9866 | 100
353 K, 6000 kPa, Liquid, x2 = 0.2852 | 1054.8
353 K, 7000 kPa, Gas, x2 = 0.9836 | 115
353 K, 7000 kPa, Liquid, x2 = 0.3205 | 1062.4
353 K, 8000 kPa, Gas, x2 = 0.9922 | 164.5
353 K, 8000 kPa, Liquid, x2 = 0.351 | 1050
353 K, 9000 kPa, Gas, x2 = 0.9891 | 206
353 K, 9000 kPa, Liquid, x2 = 0.3881 | 1048.4
353 K, 10000 kPa, Gas, x2 = 0.9709 | 224.7
353 K, 10000 kPa, Liquid, x2 = 0.4112 | 1035.5
353 K, 11000 kPa, Gas, x2 = 0.9779 | 250
353 K, 11000 kPa, Liquid, x2 = 0.4485 | 997.5
353 K, 12000 kPa, Gas, x2 = 0.9719 | 300
353 K, 12000 kPa, Liquid, x2 = 0.492 | 970.4
353 K, 13000 kPa, Gas, x2 = 0.9842 | 320
353 K, 13000 kPa, Liquid, x2 = 0.5225 | 951.1
373 K, 3000 kPa, Gas, x2 = 0.9747 | 40
373 K, 3000 kPa, Liquid, x2 = 0.1384 | 1000
373 K, 4000 kPa, Gas, x2 = 0.9779 | 60.5
373 K, 4000 kPa, Liquid, x2 = 0.1638 | 1004.9
373 K, 5000 kPa, Gas, x2 = 0.98 | 82.7
373 K, 5000 kPa, Liquid, x2 = 0.2031 | 1005.4
373 K, 6000 kPa, Gas, x2 = 0.9802 | 95.9
373 K, 6000 kPa, Liquid, x2 = 0.2367 | 1011.5
373 K, 7000 kPa, Gas, x2 = 0.9784 | 125.9
373 K, 7000 kPa, Liquid, x2 = 0.2692 | 1000
373 K, 8000 kPa, Gas, x2 = 0.9795 | 149.8
373 K, 8000 kPa, Liquid, x2 = 0.2948 | 988.9
373 K, 9000 kPa, Gas, x2 = 0.9782 | 158
373 K, 9000 kPa, Liquid, x2 = 0.3268 | 980.9
373 K, 10000 kPa, Gas, x2 = 0.9847 | 181
373 K, 10000 kPa, Liquid, x2 = 0.3403 | 960.8
373 K, 11000 kPa, Gas, x2 = 0.9806 | 226.8
373 K, 11000 kPa, Liquid, x2 = 0.3805 | 940.7
373 K, 12000 kPa, Gas, x2 = 0.9848 | 241.7
373 K, 12000 kPa, Liquid, x2 = 0.39 | 935.1
373 K, 13000 kPa, Gas, x2 = 0.9844 | 264.9
373 K, 13000 kPa, Liquid, x2 = 0.4136 | 931.2

CCCC(=O)OCC [ethyl butanoate] + O=C=O
Settings | mass density [kg/m3]
313 K, 2000 kPa, Gas, x2 = 0.9978 | 39.4
313 K, 2000 kPa, Liquid, x2 = 0.3795 | 919.1
313 K, 3000 kPa, Gas, x2 = 0.9926 | 61.3
313 K, 3000 kPa, Liquid, x2 = 0.4919 | 901
313 K, 4000 kPa, Gas, x2 = 0.9951 | 96.8
313 K, 4000 kPa, Liquid, x2 = 0.6053 | 867.6
313 K, 5000 kPa, Gas, x2 = 0.9938 | 141.2
313 K, 5000 kPa, Liquid, x2 = 0.7204 | 841.3
313 K, 6000 kPa, Gas, x2 = 0.9941 | 222.9
313 K, 6000 kPa, Liquid, x2 = 0.8124 | 813.8
313 K, 7000 kPa, Gas, x2 = 0.9888 | 300
313 K, 7000 kPa, Liquid, x2 = 0.8876 | 789.8
313 K, 8000 kPa, Gas, x2 = 0.9616 | 450
313 K, 8000 kPa, Liquid, x2 = 0.9495 | 744.8
333 K, 2000 kPa, Gas, x2 = 0.967 | 38.2
333 K, 2000 kPa, Liquid, x2 = 0.3088 | 801.5
333 K, 3000 kPa, Gas, x2 = 0.9751 | 57
333 K, 3000 kPa, Liquid, x2 = 0.3978 | 806.9
333 K, 4000 kPa, Gas, x2 = 0.9726 | 82.4
333 K, 4000 kPa, Liquid, x2 = 0.491 | 804.4
333 K, 5000 kPa, Gas, x2 = 0.9713 | 120.5
333 K, 5000 kPa, Liquid, x2 = 0.5707 | 786.8
333 K, 6000 kPa, Gas, x2 = 0.9709 | 164.2
333 K, 6000 kPa, Liquid, x2 = 0.6514 | 781.3
333 K, 7000 kPa, Gas, x2 = 0.9706 | 258.1
333 K, 7000 kPa, Liquid, x2 = 0.7285 | 752.2
333 K, 8000 kPa, Gas, x2 = 0.9716 | 298.4
333 K, 8000 kPa, Liquid, x2 = 0.8105 | 726.6
333 K, 9000 kPa, Gas, x2 = 0.9541 | 375.1
333 K, 9000 kPa, Liquid, x2 = 0.8711 | 692
333 K, 10000 kPa, Gas, x2 = 0.92 | 426.5
333 K, 10000 kPa, Liquid, x2 = 0.9039 | 670
353 K, 2000 kPa, Gas, x2 = 0.9121 | 34.5
353 K, 2000 kPa, Liquid, x2 = 0.2195 | 762.9
353 K, 3000 kPa, Gas, x2 = 0.9126 | 46.2
353 K, 3000 kPa, Liquid, x2 = 0.2919 | 764.7
353 K, 4000 kPa, Gas, x2 = 0.9151 | 68.5
353 K, 4000 kPa, Liquid, x2 = 0.356 | 765.8
353 K, 5000 kPa, Gas, x2 = 0.9166 | 106.5
353 K, 5000 kPa, Liquid, x2 = 0.4259 | 758.8
353 K, 6000 kPa, Gas, x2 = 0.9166 | 150.4
353 K, 6000 kPa, Liquid, x2 = 0.4863 | 753
353 K, 7000 kPa, Gas, x2 = 0.9189 | 215.9
353 K, 7000 kPa, Liquid, x2 = 0.5364 | 734.8
353 K, 8000 kPa, Gas, x2 = 0.9142 | 258
353 K, 8000 kPa, Liquid, x2 = 0.5983 | 719.6
353 K, 9000 kPa, Gas, x2 = 0.9127 | 308.3
353 K, 9000 kPa, Liquid, x2 = 0.6685 | 685.1
353 K, 10000 kPa, Gas, x2 = 0.91 | 331.7
353 K, 10000 kPa, Liquid, x2 = 0.7399 | 655.8
353 K, 11000 kPa, Gas, x2 = 0.89 | 375
353 K, 11000 kPa, Liquid, x2 = 0.8222 | 655.2
373 K, 2000 kPa, Gas, x2 = 0.867 | 30.6
373 K, 2000 kPa, Liquid, x2 = 0.18 | 627.3
373 K, 3000 kPa, Gas, x2 = 0.8751 | 45.1
373 K, 3000 kPa, Liquid, x2 = 0.2406 | 665.4
373 K, 4000 kPa, Gas, x2 = 0.8726 | 64.7
373 K, 4000 kPa, Liquid, x2 = 0.3086 | 675.5
373 K, 5000 kPa, Gas, x2 = 0.8713 | 96.5
373 K, 5000 kPa, Liquid, x2 = 0.3859 | 686.5
373 K, 6000 kPa, Gas, x2 = 0.8709 | 126.4
373 K, 6000 kPa, Liquid, x2 = 0.4129 | 675
373 K, 7000 kPa, Gas, x2 = 0.8706 | 171
373 K, 7000 kPa, Liquid, x2 = 0.4862 | 659.4
373 K, 8000 kPa, Gas, x2 = 0.8716 | 201.1
373 K, 8000 kPa, Liquid, x2 = 0.5222 | 647.4
373 K, 9000 kPa, Gas, x2 = 0.8766 | 233.2
373 K, 9000 kPa, Liquid, x2 = 0.5764 | 639.9
373 K, 10000 kPa, Gas, x2 = 0.856 | 259.8
373 K, 10000 kPa, Liquid, x2 = 0.6256 | 628.8
